Test results as given in patent US20110150980A1, “CGRP ANALOG” (VasoGenix Pharmaceuticals, Inc., priority 2009, published 2011).
Bridges are numbered along the chain shown (N, C = ends). Where no end group is shown, it is not given here.

Key:
[1] = target: T1, CRLR/RAMP1 receptor (Homo sapiens, UniProt O60894+Q16602); assay: CRE-luciferase assay in HEK293T cells transfected with CRLR and RAMP1; type: cell-based; conditions: compared to h-α-CGRP and h-β-CGRP as controls
T1 construct: All of the full-length cDNAs were subcloned into pcDNA3.1 expression vectors; expressed in transfected cells; host or cells: HEK293T, transient calcium phosphate transfection, pcDNA3.1 vectors
From the text: The expression vectors for RAMP1, RAMP2, RAMP3, CRLR, CRE-Luc and SRE-Luc were constructed as previously described (McLatchie L. M., et al. (1998) Nature 393:333-339). Human CRLR, RAMP1, and RAMP2 full-length cDNAs were cloned by RT-PCR using RNA obtained from HEK293T cells and CRLR, RAMP1, and RAMP2-specific primers. Human RAMP3 full-length cDNAs were cloned by RT-PCR using RNA from human kidney and RAMP3 specific primers. All of the full-length cDNAs were subcloned into pcDNA3.1 expression vectors.
Human embryonic kidney 293T cells (HEK293T) were maintained in Dulbecco's modified Eagle's medium supplemented with 10% fetal calf serum, 2 mM glutamine, […], at 37° C. in a humidified atmosphere of 95% air and 5% CO2. Transient transfections were performed using calcium phosphate co-precipitation (Mellon P. L., et al. (1981) Cell 27:279-288). Cells in six-well plates or 100-mm Petri dishes were grown to 70% confluence and transfected with 0.1 μg of DNA for CRLR, 0.05 μg for RAMPs or 1 μg for CRE-Luc and SRE-Luc per cm^2. The total amount of DNA transfected in each condition was kept constant by adding empty pcDNA3.1 vector when needed. Twenty hours after transfection, the medium was replaced with fresh medium containing 5 mM sodium butyrate for 24 h and then replaced for an additional 24 h with fresh medium without sodium butyrate. All of the experiments were performed 72 h after transfection to allow correct glycosylation and cell surface targeting of CRLR and RAMPs.
After exposure to various concentrations of CGRP or the CGRP analogs, the cells were lysed and assayed for CRE- or SRE-luciferase activity using the luciferase assay system (Promega), and luminescence was measured using a 96-well luminometer.
The mechanism of action for CGRP at the CRLR/RAMP1 receptor is known to up-regulate cAMP through the gs pathway, and to a lesser extent [Ca^2+] through the gq pathway. […] It is the cAMP pathway that is the primary mechanism of action of CGRP for vasodilation, cardio/renoprotection and immunomodulation.

[2] = system: non-sedated, non-naïve cynomolgus monkeys; assay: Intravenous infusion in non-sedated, telemeterized non-human primates: blood pressure, heart rate, ECG (Example 2); type: in vivo
Protocol: Peptides were synthesized as in Example 1. […] Two non-naïve, telemeterized, male non-human primates (NHP “a” and “b”) were used for the test article(s) dosing regimen. […] Following a stabilized baseline period of approximately 30 minutes, one of the test article(s) was administered as an intravenous infusion via a femoral vein vascular access port (VAP) using a Pegasus PCA infusion pump for a period of 30 or 60 minutes. A minimum period of 30 minutes was allotted for the hemodynamic parameters to return to baseline prior to the next test article infusion dose. The process was repeated for each of the stated test articles. The same procedure was followed for the 1 hour infusion with 1 hour allotted for parameters to return to base line.
The non-human primates were previously surgically prepared with telemetry transducers, type TL11M2-D70-PCT (Data Sciences International). The acquisition and analysis was done using a Ponemah (Version 4.8 or higher) data acquisition and analysis system installed on the hard drive of a computer. The computer was equipped with disk drive for file back up on readable write-once only optical media (CD-R or DVD-R).
Prior to the first dose administration, baseline data was acquired. For each subsequent dose, data was collected for approximately 30 min postdose. Prior to the next dose, the hemodynamic parameters were allowed to return to a stable baseline±10%.
Systolic blood pressure (SYS or SBP), diastolic blood pressure (DBP), mean arterial pressure (MAP), heart rate (HR), and all lead II ECG variables were recorded. The telemetry data files were transferred to an Excel (MicroSoft® Version 2003) spreadsheet. The following variables from the lead II ECG were measured: PR interval, QRS duration, QT interval, RR interval, and QTcF interval (calculated as
A visual inspection of the entire collected ECG waveform for disturbances in rhythm and waveform morphology was performed. The data for selected time points were analyzed and assessed on completion of data acquisition and were the average of at least 30 beats (ABP and ECG) of data at the selected analysis time, when possible. The time points for both hemodynamic and ECG data analysis were an initial 30 min baseline prior to the first dose, at a 10 min during each infusion postdose interval relative to end of each infusion, and time points prior to the next test article infusion for each test compound.
Non-human primates were selected because they have the same RAMP 1-CGRP receptor complex as humans.

[3] = system: sedated Non Human Primate; assay: IV infusion in the sedated Non Human Primate: blood pressure and heart rate (Example 1); type: in vivo
[4] = NHP a, dose day 2, during 30 minute infusions of 0.024 ug/kg/min
[5] = NHP a, dose day 3, during 30 minute infusions of 0.024 ug/kg/min
[6] = NHP a, dose day 3, during 1 hour infusion of 0.024 ug/kg/min
[7] = NHP b, dose day 2, during 30 minute infusions of 0.024 ug/kg/min
[8] = NHP b, dose day 3, during 30 minute infusions of 0.024 ug/kg/min
[9] = NHP b, dose day 3, during 1 hour infusion of 0.024 ug/kg/min
[10] = average of a 2, b 2, a 3, b 3, during 30 minute infusions of 0.024 ug/kg/min
[11] = average of a3, b3, during 1 hour infusion of 0.024 ug/kg/min

T1 sequence (Q16602 23-461): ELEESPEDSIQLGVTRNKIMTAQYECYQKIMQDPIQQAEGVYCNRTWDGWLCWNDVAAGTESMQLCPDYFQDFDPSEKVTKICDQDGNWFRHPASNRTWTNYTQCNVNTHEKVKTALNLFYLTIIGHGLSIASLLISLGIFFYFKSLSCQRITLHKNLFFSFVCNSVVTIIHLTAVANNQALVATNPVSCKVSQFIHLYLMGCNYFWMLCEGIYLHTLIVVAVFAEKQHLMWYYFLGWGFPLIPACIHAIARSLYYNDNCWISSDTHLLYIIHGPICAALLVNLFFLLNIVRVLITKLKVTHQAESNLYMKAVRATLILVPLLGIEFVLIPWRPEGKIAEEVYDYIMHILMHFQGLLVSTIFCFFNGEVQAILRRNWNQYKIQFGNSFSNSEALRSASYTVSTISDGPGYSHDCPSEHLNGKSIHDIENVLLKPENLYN
T1 sequence (O60894 27-148): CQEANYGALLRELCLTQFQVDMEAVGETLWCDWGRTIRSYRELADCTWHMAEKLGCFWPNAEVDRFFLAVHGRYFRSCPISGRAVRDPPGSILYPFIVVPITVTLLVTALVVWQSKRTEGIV

Q: How did the “activity and potency in binding to the CGRP receptor, CRE-Luciferase assay” value [1] turn out when “Cyc-ACNTATCVTHRLAGLLSRSGGVVKSNFVPTNVGSKAF-NH2 (disulfide 2-7 (inferred)) [Peptide V]” was run?
A: as equally active and potent as h-α-CGRP and h-β-CGRP

Q: And the “Percent change in HR, a 2” value [2, 4]?
A: −19.8%

Q: And the “Percent change in mean BP, a 2” value [2, 4]?
A: −20.0%

Q: And the “Percent change in systolic BP, a 2” value [2, 4]?
A: −16.2%

Q: What about the “Percent change in HR, a 3” value [2, 5] of the same substance?
A: −22.2%

Q: And the “Percent change in mean BP, a 3” value [2, 5]?
A: −8.8%

Q: What about the “Percent change in systolic BP, a 3” value [2, 5] of the same substance?
A: −6.8%

Q: And the “Percent change in HR at 30 minutes, a3” value [2, 6]?
A: −22.2%

Q: And the “Percent change in HR at 60 minutes, a3 1 hr” value [2, 6]?
A: −5.8%

Q: What about the “Percent change in mean systolic BP at 30 minutes, a3” value [2, 6] of the same substance?
A: −8.8%

Q: And the “Percent change in mean systolic BP at 60 minutes, a3 1 hr” value [2, 6]?
A: −5.3%

Q: And the “Percent change in systolic BP at 30 minutes, a3” value [2, 6]?
A: −6.8%

Q: What about the “Percent change in systolic BP at 60 minutes, a3 1 hr” value [2, 6] of the same substance?
A: −5.8%

Q: And the “Percent change in HR, b 2” value [2, 7]?
A: −13.1%

Q: And the “Percent change in mean BP, b 2” value [2, 7]?
A: −28.6%

Q: What about the “Percent change in systolic BP, b 2” value [2, 7] of the same substance?
A: −27.2%

Q: What about the “Percent change in HR, b 3” value [2, 8] of the same substance?
A: −37.3%

Q: And the “Percent change in mean BP, b 3” value [2, 8]?
A: −26.4%

Q: What about the “Percent change in systolic BP, b 3” value [2, 8] of the same substance?
A: −23.9%

Q: What about the “Percent change in HR at 30 minutes, b3” value [2, 9] of the same substance?
A: −37.3%

Q: What about the “Percent change in HR at 60 minutes, b3 1 hr” value [2, 9] of the same substance?
A: 14.5%

Q: What about the “Percent change in mean systolic BP at 30 minutes, b3” value [2, 9] of the same substance?
A: −26.4%

Q: And the “Percent change in mean systolic BP at 60 minutes, b3 1 hr” value [2, 9]?
A: 2.4%

Q: And the “Percent change in systolic BP at 30 minutes, b3” value [2, 9]?
A: −23.9%

Q: What about the “Percent change in systolic BP at 60 minutes, b3 1 hr” value [2, 9] of the same substance?
A: 2.8%

Q: And the “Percent change in mean HR, a 2” value ([2]; Table 14, NHP a, dose day 2, during 30 minute infusions of 0.024 ug/kg/min)?
A: −19.8%

Q: What about the “Percent change in mean HR, a 3” value ([2]; Table 14, NHP a, dose day 3, during 30 minute infusions of 0.024 ug/kg/min) of the same substance?
A: −22.2%

Q: What about the “Percent change in mean HR, b 2” value ([2]; Table 14, NHP b, dose day 2, during 30 minute infusions of 0.024 ug/kg/min) of the same substance?
A: −13.1%

Q: And the “Percent change in mean HR, b 3” value ([2]; Table 14, NHP b, dose day 3, during 30 minute infusions of 0.024 ug/kg/min)?
A: −37.3%

Q: What about the “Percent change in mean HR, HR” value ([2]; Table 14, average of a 2, b 2, a 3, b 3, during 30 minute infusions of 0.024 ug/kg/min) of the same substance?
A: −23.1%

Q: What about the “Percent change in mean HR at 30 minutes, a3” value ([2]; Table 24, NHP a, dose day 3, during 1 hour infusion of 0.024 ug/kg/min) of the same substance?
A: −22.2%

Q: And the “Percent change in mean HR at 30 minutes, b3” value ([2]; Table 24, NHP b, dose day 3, during 1 hour infusion of 0.024 ug/kg/min)?
A: −37.3%

Q: And the “Percent change in mean HR at 30 minutes, HR T30” value ([2]; Table 24, average of a3, b3, during 1 hour infusion of 0.024 ug/kg/min)?
A: −29.8%

Q: And the “Percent change in mean HR at 60 minutes, a3 1 hr” value ([2]; Table 25, NHP a, dose day 3, during 1 hour infusion of 0.024 ug/kg/min)?
A: −5.8%

Q: What about the “Percent change in mean HR at 60 minutes, b3 1 hr” value ([2]; Table 25, NHP b, dose day 3, during 1 hour infusion of 0.024 ug/kg/min) of the same substance?
A: 14.5%

Q: And the “Percent change in mean HR at 60 minutes, HR T60” value ([2]; Table 25, average of a3, b3, during 1 hour infusion of 0.024 ug/kg/min)?
A: 4.4%

Q: What about the “Percent change in HR, HR” value [2, 10] of the same substance?
A: −23.1%

Q: And the “Percent change in mean BP, BP” value [2, 10]?
A: −21.0%

Q: And the “Percent change in systolic BP, BP” value [2, 10]?
A: −18.5%

Q: What about the “Percent change in HR at 30 minutes, HR T30” value [2, 11] of the same substance?
A: −29.8%

Q: What about the “Percent change in HR at 60 minutes, HR T60” value [2, 11] of the same substance?
A: 4.4%

Q: What about the “Percent change in mean systolic BP at 30 minutes, BP T30” value [2, 11] of the same substance?
A: −17.6%

Q: And the “Percent change in mean systolic BP at 60 minutes, BP T60” value [2, 11]?
A: −1.5%

Q: What about the “Percent change in systolic BP at 30 minutes, T30” value [2, 11] of the same substance?
A: −15.4%

Q: And the “Percent change in systolic BP at 60 minutes, T60” value [2, 11]?
A: −1.5%

Q: What about the “reduction of BP and HR (Tables 8, 13 and 14, FIG. 11)” value ([2]; mean BP and HR, 30 minute infusions, 0.024 ug/kg/min) of the same substance?
A: reduced both BP and HR to a greater extent than the positive control αCGRP

Q: And the “effect on heart rate” value ([2]; non-sedated cynomolgus monkeys, IV infusion)?
A: maintenance of pre-administration heart rate, and in some cases, reduction in heart rate

Q: And the “reduction of BP and HR (Tables 8-10, FIG. 10)” value ([2]; systolic BP and HR, 30 minute infusions, 0.024 ug/kg/min)?
A: reduced BP and HR to a greater extent than αCGRP and βCGRP

Q: What about the Heart rate effect ([3]; at any of the tested doses) of the same substance?
A: no increase in heart rate

Q: What about the “increase in heart rate (HR) compared to the control CGRP” value ([3]; sedated Non Human Primate, IV for 5 minutes at 29/ng/kg/min) of the same substance?
A: reduced increase in heart rate
